Laboratory results reported in US20250154525A1, “PLANT VIRUS MOVEMENT PROTEINS AND METHODS OF USING SAME” (Molecular Transfer, Inc., priority 2016, published 2025).

How the values were obtained:
Jurkat Cells = assay: GFP plasmid transfection with DOTMA/DOPE plus surface ligand peptide, fluorescent plate reader (Example 1); type: cell-based; settings: DOTMA/DOPE + peptide linked to R12 or K16; EF1Alpha eGFP plasmid; 42 hours
Method in brief: (§1)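 DOTMA/DOPE (1:1 molar) plus peptide bearing a poly-Arg or poly-Lys tag was complexed 10 min with EF1alpha eGFP plasmid in OptiMEM, then added to 70%-confluent cells (0.01 mL fibroblasts; 0.02 mL C2C12, Jurkat). After 42 h at 37 °C, GFP was read by plate reader and compared with DOTMA without ligand.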

NL-1 iPS Cells = assay: as above; type: cell-based; settings: DOTMA/DOPE + peptide linked to R12 or K16; EF1Alpha eGFP plasmid; 42 hours
Human Fibroblast Cells = assay: as above; type: cell-based; settings: DOTMA/DOPE + peptide linked to R12 or K16; EF1Alpha eGFP plasmid; 42 hours
Method in brief: as §1

HeLa Cells [1] = assay: as above; type: cell-based; settings: DOTMA/DOPE + peptide linked to R12 or K16; EF1Alpha eGFP plasmid; 42 hours
HuVec Cells = assay: as above; type: cell-based; settings: DOTMA/DOPE + peptide linked to R12 or K16; EF1Alpha eGFP plasmid; 42 hours
Method in brief: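 HuVEC cells in 96 well plates at 70% confluence were transfected with EF1Alpha eGFP plasmid using a 1:1 molar DOTMA/DOPE lipid mixed with a surface ligand peptide carrying a covalently attached nucleic acid binding moiety. Complexes formed for 10 minutes, 0.01 mL went to each well, cells were incubated 42 hours at 37° C., and fluorescence was read on a plate reader.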

some examined cell types = assay: Summary of Example 1: transfection expression and % cells transfected over the no peptide control; type: cell-based; settings: on some examined cell types
Method in brief: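 Cells at 70% confluence received DNA complexes of EF1Alpha eGFP plasmid with DOTMA/DOPE (1:1) plus oligo-Arg- or oligo-Lys-tagged peptide ligands, formed 10 min at room temperature. After 42 h at 37 °C, 5% CO2, GFP read by plate reader and % transfected cells judged microscopically, relative to lipid without peptide.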

HeLa Cells [2] = assay: GFP transfection with DOTMA/SEQ ID NO: 72 (fusogenic peptide)/peptide compared with Lipofectamine 2000; type: cell-based
Procedure: Cells were plated to so that on the day of transfection the cells were 70% confluent in 96 well tissue culture plates. A DOMTA/DOPE Lipid solution (1:1 molar ratio) at 2 mg/mL in water were mixed with an equal volume cell surface ligand containing adhesion peptide, the plant virus movement protein, or peptide derived therefrom, that had the nucleic acid binding moiety RRRRRRRRRRRR (SEQ ID NO:109) or KKKKKKKKKKKKKKKK (SEQ ID NO: 102) covalently linked to the N-terminus, or C-terminus of each peptide during peptide synthesis. Peptides were at 2 mg/mL in water. The DOTMA/DOPE and the solution containing the cell surface ligand containing adhesion peptide, the plant virus movement protein, or peptide derived therefrom, surface ligand peptide the was diluted 1 to 1 (v/v) in water. DOMTA/DOPE/PEPTIDE solutions were added to 0.1 mL of a plasmid DNA solution (EF1Alpha eGFP plasmid) at 10 μg/mL in OptiMEM.
All solutions were at room temperature. A volume of 0.2 mL of a 10 μg/mL solution of DNA was aliquoted into each well of a non-tissue cultured treated plate. 1-12 μL of transfection reagents were added to DNA solutions respectively. The transfection reagent and DNA solution was mixed by pipetting up and down twice. Transfection complexes were formed for 10 minutes. After 10 minutes, 0.01 or 0.02 mL of the transfection complex was added to cells. HuVEC, HeLa, human adult keratinocytes, human primary adult fibroblast, and A549 cells all respectively received 0.01 mL of the transfection complex. Human skeletal muscle cells, mouse C2C12 cells, and Jurkat, cells received 0.02 mL of the transfection complex. Cells were incubated for 42 hours at 37° C. at 5% CO2. Plates were read on a fluorescent plate reader. Cells were also examined visually under a microscope to assess the extent of transfection (in terms of the percent of cells transfected) with a fluorescent microscope. Other modes of analysis, for example quantification with B-galactocidase or luciferase reports plasmids can also be used.
The fusogenic peptide was added to the DOMTA/peptide formulation to achieve a final concentration of 0.1 mg/mL to see if transfection reagents were further enhanced by the addition of a fusogenic peptide and could provide higher transfection efficiency into HeLa cells and expression than the commercially available Lipofectamine 2000.

C2C12 Cells = assay: GFP plasmid transfection with DOTMA/DOPE plus surface ligand peptide, fluorescent plate reader (Example 1); type: cell-based, mouse; settings: DOTMA/DOPE + peptide linked to R12 or K16; EF1Alpha eGFP plasmid; 42 hours
Method in brief: as §1

[3] = 0.1 μL of DOTMA/SEQ ID NO: 72/Peptide in well of a 96 well plate
[4] = 0.2 μL of DOTMA/SEQ ID NO: 72/Peptide in well of a 96 well plate
[5] = 0.3 μL of DOTMA/SEQ ID NO: 72/Peptide in well of a 96 well plate
[6] = 0.4 μL of DOTMA/SEQ ID NO: 72/Peptide in well of a 96 well plate

Substance	Relative Fluorescence of Transfection of Jurkat Cells (RF) (Jurkat Cells)	Relative Fluorescence of Transfection of NL-1 iPS Cells (RF) (NL-1 iPS Cells)	Relative Fluorescence of Transfection of Human Fibroblast Cells (RF) (Human Fibroblast Cells)	Relative Fluorescence of Transfection of HeLa Cells (RF) (HeLa Cells [1])	Relative Fluorescence of Transfection of HuVec Cells (RF) (HuVec Cells)	transfection expression and % cells transfected over the no peptide control (some examined cell types)	Relative Fluorescence DOTMA/SEQ ID NO: 72/Peptide, HeLa Cells (RF) (HeLa Cells [2]; [3])	Relative Fluorescence DOTMA/SEQ ID NO: 72/Peptide, HeLa Cells (RF) (HeLa Cells [2]; [4])	Relative Fluorescence DOTMA/SEQ ID NO: 72/Peptide, HeLa Cells (RF) (HeLa Cells [2]; [5])	Relative Fluorescence DOTMA/SEQ ID NO: 72/Peptide, HeLa Cells (RF) (HeLa Cells [2]; [6])	Relative Fluorescence of Transfection of C2C12 Cells (RF) (C2C12 Cells)
503 (TAGSCLRKFSTMRRRRRRRRRRRR) [compound 503]	9411	19014	13085	25368	12123	increased transfection expression and the % cells transfected	12827	20006	17101	16206	3973
323 (HQQDLGTAGSCLRKFSTMFLF) [compound 323]	2900	21694	4826	14067	12815	increased transfection expression and the % cells transfected	15537	16620	10839	9244	7698
377 (TAGSCLRRFSTM) [compound 377]	6785	5474	6638	15091	9326	increased transfection expression and the % cells transfected	39115	40072	32914	22457	1710
379 (TAGSCLRKF) [compound 379]	7711	6894	8520	27424	14573	increased transfection expression and the % cells transfected	50018	47049	39036	26448	3189
351 (LNRQELFPFG) [compound 351]	9730	24646	8061	12279	15379	increased transfection expression and the % cells transfected	7678	11499	10575	8791	3530
450 (TAGSCLRKFSCL) [compound 450]	8779	29856	6996	21045	20911	increased transfection expression and the % cells transfected	11962	17346	12553	10241	3795
375 (LAGSCLPVFSTL) [compound 375]	4272	5196	7305	41076	5542	increased transfection expression and the % cells transfected	22457	30891	34887	29024	5633
343 (LFSHAVSSNG) [compound 343]	23499	21726	4590	5910	16239	increased transfection expression and the % cells transfected	6961	8626	8577	8160	3218
